In publication doi:10.1101/2022.10.28.514248v1 (biorxiv, 2022) one finds Kd and EC50 data, which are given here for 2 compounds.

Changes are numbered by the printed parent chain.

Assay [1] addresses T1, GDAP1ΔTM (Mus musculus, UniProt O88741, T157P).
T1 sequence (O88741 1-322 T157P): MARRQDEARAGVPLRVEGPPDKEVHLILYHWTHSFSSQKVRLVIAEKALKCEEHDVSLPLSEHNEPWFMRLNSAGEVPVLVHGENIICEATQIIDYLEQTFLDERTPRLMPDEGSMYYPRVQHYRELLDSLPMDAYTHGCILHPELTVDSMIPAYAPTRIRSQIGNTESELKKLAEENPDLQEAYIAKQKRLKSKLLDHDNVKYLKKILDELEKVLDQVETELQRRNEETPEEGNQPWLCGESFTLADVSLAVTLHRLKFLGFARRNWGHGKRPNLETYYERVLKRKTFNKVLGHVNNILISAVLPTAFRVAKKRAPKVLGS
Briefly: native PAGE titration, band quantification, Hill fit. It is filed as binding.

The target in assay [2] is T2, GDAP1ΔTM (Mus musculus, UniProt O88741).
T2 sequence (O88741 1-322): T1 sequence (O88741 1-322 T157P) with P157T
The description is as above. It counts as binding.

The target of assay [3] is T2, GDAP1ΔTM. Put plainly: anti-4HNE Western blot of Michael adduct formation, Hill fit. It is filed as biochemical. On the technique in general: Immunoblotting shows a protein as a band on a membrane.
The target of assay [4] is T2, GDAP1ΔTM. Briefly: fluorescence polarization, N-terminally fluorescein-labelled protein. It is filed as binding.

Usually Kd stands for the concentration at which binding is half-saturated. A lower Kd goes with higher affinity. For orientation: EC50 means the concentration that produces a half-maximal response. A higher EC50 goes with a less potent agent. As to `CCCCCC(O)/C=C/C=O` (stereo not shown) [4-hydroxynonenal], the results for the Kd on GDAP1ΔTM [1] and on GDAP1ΔTM [2] were 1330 ± 259 µM and 398 µM, respectively. A half-maximal effect at GDAP1ΔTM [3] (EC50) was put at 241 ± 52 µM.

Turning to `O=C(O)CCCCCCCCCCCCCCC(=O)O` [thapsic acid], at GDAP1ΔTM [4], the Kd is around 34 µM.
